Key:
[1] = target: T1, human mGlu5 receptor (Homo sapiens, UniProt P41594); assay: FLIPR calcium assay for mGlu receptor selectivity, mGlu5 antagonist mode; format: cell-based; conditions: inhibition of EC90 glutamate response, read-out: mGlu5 % inhib. @12.5 μM
T1 construct: expressed in transfected cells; host or cells: AV12 cells, co-expressing rat EAAT1
Text: (§1) FLIPR and cAMP Assays for mGlu Receptor Selectivity
(§2) The relative antagonist potencies of the compounds of the invention for the other human mGlu receptors can be assessed with either a cAMP assay or fluorometric calcium response assay (see for example Fell et al., JPET (in press)). Briefly, individual AV12 cell lines containing the rat EAAT1 glutamate transporter and stably expressing the human mGlu1, 2, 3, 4, 5, 6, & 8 receptors are used for these studies. The mGlu1 and 5 receptors are […], so they naturally signal through phospholipase C, producing a calcium flux response which can be used to measure receptor activation using a Fluorometric Imaging Plate Reader (FLIPR, Molecular Devices). The cell lines expressing the mGlu2, 3, 4, and 8 receptor are designed to express the Gα15 subunit so that these Gi-coupled receptors will generate a calcium flux response similar to the mGlu1 and 5 receptor expressing cell lines. The mGlu6 receptor is tested in a cAMP format using methods analogous to those developed for mGlu2 and mGlu3 above. These cell lines are maintained as previously described except that amounts of L-glutamine and selection agents (geneticin, hygromycin B, zeocin, and blasticidin) may vary depending on the cell line. Confluent cultures are passaged biweekly.
(§3) Intracellular calcium levels are monitored using FLIPR before and after the addition of test compounds and Fluo-3 AM (Invitrogen) or Calcium 4 (Molecular Devices) dye, depending on the cell line. Cells are plated 24 hours prior to assay in a variable concentration of glutamine and a variable density of cells per well, depending on the cell line. The medium is removed and the cells are incubated with 8 μM of dye (50 μl per well) for 90 or 120 minutes (depending on cell line) at 25° C. A single-addition FLIPR assay generating an 11-point concentration response curve for the agonist glutamate is conducted prior to each experiment to confirm the appropriate sensitivity of the cells. The results are analyzed using GraphPad Prism v4.03 to calculate the concentrations of glutamate needed to induce the EC90 (antagonist assay) and EC10 (potentiator assay) responses.
(§4) Compounds are tested at each mGlu receptor in a two-addition FLIPR assay using a 10-point concentration response profile starting at a final concentration of 25 μM for the agonist assay and 12.5 μM for the potentiator and antagonist assays. The first addition detects any agonist activity, and the second addition consists of 100 μl of select concentrations (depending on cell line) of glutamate in assay buffer generating an EC10 or EC90 glutamate response. Agonist effects are quantified as percent stimulation induced by compound alone relative to the maximal glutamate response. Antagonist effects are quantified by calculating the percent inhibition of the EC90 glutamate response caused by the compound. Potentiation effects are quantified as percent increase in the presence of an EC10 response in glutamate relative to the ECmax response. All data are calculated as relative IC50 or EC50 values using a four-parameter logistic curve fitting program (ActivityBase v5.3.1.22).

[2] = target: T2, human mGlu2 receptors (Homo sapiens, UniProt Q14416); assay: mGlu2 receptor cAMP antagonist assay; format: cell-based; conditions: reversal of DCG IV (EC90) inhibition of forskolin-stimulated cAMP; AV12 cells
T2 construct: expressed in transfected cells; host or cells: AV12 cells, co-expressing rat EAAT1
Procedure: mGlu2 and mGlu3 Receptor cAMP Antagonist Assays
Antagonist activity is assayed in recombinant AV12 cells stably expressing human mGlu2 or mGlu3 receptors and the rat glutamate transporter EAAT1 (Excitatory Amino Acid Transporter 1). The cell lines are maintained by culturing in DMEM with high glucose and pyridoxine hydrochloride supplemented with 5% dialyzed fetal bovine serum (FBS), 1 mM sodium pyruvate, 1 mM HEPES and 1 mM L-glutamine; geneticin and hygromycin B are used as selection antibiotics.
Reversal of the inhibition of forskolin-stimulated cAMP production by test compounds is measured using homogeneous time resolved fluorescence technology (HTRF; Cisbio cat #62AM4PEB). The medium is removed and the cells are incubated with 100 μl cAMP stimulation buffer (STIM) for 30 minutes at 37° C. […] Cells are incubated at 37° C. for 20 minutes. To measure the cAMP levels, cAMP-d2 conjugate and anti cAMP-cryptate conjugate in lysis buffer are incubated with the treated cells at room temperature for 1 hour (mGlu2) or 1.5 hour (mGlu3). […] The raw data are converted to cAMP amount (pmole/well) using a cAMP standard curve generated for each experiment. Relative IC50 values are calculated from the top-bottom range of the concentration response curve using a four-parameter logistic curve fitting program (ActivityBase v5.3.1.22).

[3] = target: T3, human mGlu4 receptor (Homo sapiens, UniProt Q14833); assay: FLIPR calcium assay for mGlu receptor selectivity, mGlu4 antagonist mode; format: cell-based; conditions: inhibition of EC90 glutamate response, read-out: mGlu4 % inhib. @12.5 μM
T3 construct: expressed in transfected cells; host or cells: AV12 cells, co-expressing rat EAAT1 and Galpha15
Text: as §1, §2, §3, §4

[4] = target: serotonin receptor 5-HT2B (Homo sapiens, UniProt P41595); assay: Off-target activity, known assay methods: 5-HT2B
Text: (§5) Further, certain compounds of the present invention show a lack of significant activity at other physiologically important receptors such as, but not limited to, the hERG channel, serotonin receptors (specifically 5-HT2A and 5-HT2B), muscarinic receptors (specifically M2), and iGluR receptors (specifically iGluR5).

[5] = target: iGluR5 (Homo sapiens, UniProt P39086); assay: Off-target activity, known assay methods: iGluR5
Text: as §5

[6] = tested on: mGlu2+/+ mice; assay: mFST in mGlu2+/+ littermate mice; format: in vivo, mouse; conditions: 10 mg/kg, i.p., 30 min prior
[7] = target: T4, muscarinic receptor M2 (Homo sapiens, UniProt P08172); assay: Off-target activity, known assay methods: M2
T4 sequence (P08172 1-466): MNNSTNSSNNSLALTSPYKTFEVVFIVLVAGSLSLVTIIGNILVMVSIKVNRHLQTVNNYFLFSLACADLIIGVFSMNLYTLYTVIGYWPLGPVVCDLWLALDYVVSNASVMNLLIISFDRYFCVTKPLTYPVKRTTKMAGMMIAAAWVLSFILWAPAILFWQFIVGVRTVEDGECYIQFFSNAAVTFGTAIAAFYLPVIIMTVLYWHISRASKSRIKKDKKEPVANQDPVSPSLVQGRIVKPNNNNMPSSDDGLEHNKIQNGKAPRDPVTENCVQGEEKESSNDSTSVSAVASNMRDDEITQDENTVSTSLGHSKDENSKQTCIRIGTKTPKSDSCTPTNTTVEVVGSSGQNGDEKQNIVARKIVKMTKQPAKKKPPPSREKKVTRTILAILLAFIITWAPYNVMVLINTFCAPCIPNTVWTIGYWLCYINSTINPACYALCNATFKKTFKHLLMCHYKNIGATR
Text: as §5

[8] = target: serotonin receptor 5-HT2A (Homo sapiens, UniProt P28223); assay: Off-target activity, known assay methods: 5-HT2A
Text: as §5

[9] = target: hERG channel (Homo sapiens, UniProt Q12809); assay: Off-target activity, known assay methods: hERG
Text: as §5

T2 sequence (Q14416 19-872): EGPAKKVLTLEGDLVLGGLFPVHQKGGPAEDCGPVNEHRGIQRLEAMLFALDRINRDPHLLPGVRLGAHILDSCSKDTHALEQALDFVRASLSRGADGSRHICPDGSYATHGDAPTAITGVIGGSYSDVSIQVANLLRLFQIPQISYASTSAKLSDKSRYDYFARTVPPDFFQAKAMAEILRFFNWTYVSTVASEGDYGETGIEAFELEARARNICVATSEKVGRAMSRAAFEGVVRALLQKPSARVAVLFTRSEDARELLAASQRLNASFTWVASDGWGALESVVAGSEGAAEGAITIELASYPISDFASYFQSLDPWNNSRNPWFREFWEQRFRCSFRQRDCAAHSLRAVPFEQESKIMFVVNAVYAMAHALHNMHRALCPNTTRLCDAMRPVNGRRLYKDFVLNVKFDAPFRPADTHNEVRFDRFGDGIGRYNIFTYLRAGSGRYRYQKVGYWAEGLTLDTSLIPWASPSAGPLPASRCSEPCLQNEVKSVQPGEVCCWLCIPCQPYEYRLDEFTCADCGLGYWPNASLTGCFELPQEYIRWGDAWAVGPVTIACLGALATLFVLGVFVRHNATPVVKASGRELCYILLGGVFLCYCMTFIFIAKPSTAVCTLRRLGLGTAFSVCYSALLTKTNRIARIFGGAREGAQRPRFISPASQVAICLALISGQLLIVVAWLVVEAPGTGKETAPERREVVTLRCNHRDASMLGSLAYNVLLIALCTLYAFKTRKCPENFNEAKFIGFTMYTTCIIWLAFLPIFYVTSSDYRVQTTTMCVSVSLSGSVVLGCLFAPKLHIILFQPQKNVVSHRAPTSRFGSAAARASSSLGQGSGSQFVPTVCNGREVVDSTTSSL
T1 sequence (P41594 19-1212 limits assumed): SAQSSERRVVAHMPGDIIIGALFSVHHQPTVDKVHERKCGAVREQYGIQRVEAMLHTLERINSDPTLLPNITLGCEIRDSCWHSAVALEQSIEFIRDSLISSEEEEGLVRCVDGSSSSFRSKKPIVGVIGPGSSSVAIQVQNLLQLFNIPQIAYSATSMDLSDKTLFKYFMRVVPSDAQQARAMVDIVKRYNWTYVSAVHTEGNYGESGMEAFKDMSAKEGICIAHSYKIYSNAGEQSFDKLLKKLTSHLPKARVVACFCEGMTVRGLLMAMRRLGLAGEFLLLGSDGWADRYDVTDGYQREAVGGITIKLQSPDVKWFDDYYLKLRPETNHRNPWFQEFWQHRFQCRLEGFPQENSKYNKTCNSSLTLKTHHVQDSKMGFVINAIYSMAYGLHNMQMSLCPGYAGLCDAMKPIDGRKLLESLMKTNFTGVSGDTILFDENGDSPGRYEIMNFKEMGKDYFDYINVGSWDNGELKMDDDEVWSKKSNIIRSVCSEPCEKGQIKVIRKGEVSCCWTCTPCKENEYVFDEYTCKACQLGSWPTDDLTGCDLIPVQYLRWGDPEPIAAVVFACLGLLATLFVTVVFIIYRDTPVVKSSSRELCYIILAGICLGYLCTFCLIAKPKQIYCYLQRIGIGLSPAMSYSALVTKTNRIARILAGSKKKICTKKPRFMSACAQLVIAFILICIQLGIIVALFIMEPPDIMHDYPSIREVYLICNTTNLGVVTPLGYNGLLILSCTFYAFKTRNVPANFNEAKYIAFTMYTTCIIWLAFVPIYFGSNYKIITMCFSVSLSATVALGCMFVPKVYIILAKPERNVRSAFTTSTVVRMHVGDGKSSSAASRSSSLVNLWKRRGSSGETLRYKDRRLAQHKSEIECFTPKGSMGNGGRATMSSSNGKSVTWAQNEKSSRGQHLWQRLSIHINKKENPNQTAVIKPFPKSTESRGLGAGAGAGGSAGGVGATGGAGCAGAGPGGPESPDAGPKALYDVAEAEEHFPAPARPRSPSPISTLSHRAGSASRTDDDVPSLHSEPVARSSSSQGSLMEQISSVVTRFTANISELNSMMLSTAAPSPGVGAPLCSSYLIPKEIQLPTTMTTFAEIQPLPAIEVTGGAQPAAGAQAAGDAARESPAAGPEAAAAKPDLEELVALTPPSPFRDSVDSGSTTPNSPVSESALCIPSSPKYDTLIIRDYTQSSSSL
T3 sequence (Q14833 33-912): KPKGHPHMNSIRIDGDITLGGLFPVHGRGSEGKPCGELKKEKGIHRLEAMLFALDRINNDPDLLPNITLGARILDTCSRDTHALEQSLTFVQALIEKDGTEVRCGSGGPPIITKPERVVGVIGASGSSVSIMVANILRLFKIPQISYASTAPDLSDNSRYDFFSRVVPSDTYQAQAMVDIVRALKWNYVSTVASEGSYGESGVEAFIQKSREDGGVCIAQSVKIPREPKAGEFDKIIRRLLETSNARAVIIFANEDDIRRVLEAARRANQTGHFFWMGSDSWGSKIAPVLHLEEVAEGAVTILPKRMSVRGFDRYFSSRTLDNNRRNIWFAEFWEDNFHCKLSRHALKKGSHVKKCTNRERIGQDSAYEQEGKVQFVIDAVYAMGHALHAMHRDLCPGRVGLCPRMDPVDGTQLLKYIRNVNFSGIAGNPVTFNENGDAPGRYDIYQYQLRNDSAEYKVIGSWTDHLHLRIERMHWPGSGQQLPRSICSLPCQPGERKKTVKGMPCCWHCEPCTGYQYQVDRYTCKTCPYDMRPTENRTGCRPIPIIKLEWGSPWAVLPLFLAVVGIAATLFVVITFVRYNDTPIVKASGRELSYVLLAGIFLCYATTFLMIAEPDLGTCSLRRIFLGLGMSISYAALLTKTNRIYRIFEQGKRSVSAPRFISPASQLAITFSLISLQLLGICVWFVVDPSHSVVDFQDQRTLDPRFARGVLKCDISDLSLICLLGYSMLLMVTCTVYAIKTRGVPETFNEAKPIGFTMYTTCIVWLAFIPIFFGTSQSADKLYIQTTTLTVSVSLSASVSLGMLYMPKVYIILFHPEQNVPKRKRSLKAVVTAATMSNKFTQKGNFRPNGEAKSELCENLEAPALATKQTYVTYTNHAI
serotonin receptor 5-HT2A, sequence (P28223 whole entry): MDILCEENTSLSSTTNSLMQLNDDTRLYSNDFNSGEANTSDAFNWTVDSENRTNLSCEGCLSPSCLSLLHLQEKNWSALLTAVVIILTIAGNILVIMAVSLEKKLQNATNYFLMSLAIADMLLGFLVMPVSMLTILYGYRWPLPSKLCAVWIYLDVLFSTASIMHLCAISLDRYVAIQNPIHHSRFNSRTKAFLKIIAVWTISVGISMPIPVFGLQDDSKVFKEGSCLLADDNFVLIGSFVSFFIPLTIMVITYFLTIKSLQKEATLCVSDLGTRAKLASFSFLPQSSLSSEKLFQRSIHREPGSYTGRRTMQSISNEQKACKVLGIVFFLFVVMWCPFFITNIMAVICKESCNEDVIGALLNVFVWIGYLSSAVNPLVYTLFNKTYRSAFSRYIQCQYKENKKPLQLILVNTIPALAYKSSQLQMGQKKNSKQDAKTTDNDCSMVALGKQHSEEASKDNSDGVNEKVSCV
hERG channel, sequence (Q12809 whole entry): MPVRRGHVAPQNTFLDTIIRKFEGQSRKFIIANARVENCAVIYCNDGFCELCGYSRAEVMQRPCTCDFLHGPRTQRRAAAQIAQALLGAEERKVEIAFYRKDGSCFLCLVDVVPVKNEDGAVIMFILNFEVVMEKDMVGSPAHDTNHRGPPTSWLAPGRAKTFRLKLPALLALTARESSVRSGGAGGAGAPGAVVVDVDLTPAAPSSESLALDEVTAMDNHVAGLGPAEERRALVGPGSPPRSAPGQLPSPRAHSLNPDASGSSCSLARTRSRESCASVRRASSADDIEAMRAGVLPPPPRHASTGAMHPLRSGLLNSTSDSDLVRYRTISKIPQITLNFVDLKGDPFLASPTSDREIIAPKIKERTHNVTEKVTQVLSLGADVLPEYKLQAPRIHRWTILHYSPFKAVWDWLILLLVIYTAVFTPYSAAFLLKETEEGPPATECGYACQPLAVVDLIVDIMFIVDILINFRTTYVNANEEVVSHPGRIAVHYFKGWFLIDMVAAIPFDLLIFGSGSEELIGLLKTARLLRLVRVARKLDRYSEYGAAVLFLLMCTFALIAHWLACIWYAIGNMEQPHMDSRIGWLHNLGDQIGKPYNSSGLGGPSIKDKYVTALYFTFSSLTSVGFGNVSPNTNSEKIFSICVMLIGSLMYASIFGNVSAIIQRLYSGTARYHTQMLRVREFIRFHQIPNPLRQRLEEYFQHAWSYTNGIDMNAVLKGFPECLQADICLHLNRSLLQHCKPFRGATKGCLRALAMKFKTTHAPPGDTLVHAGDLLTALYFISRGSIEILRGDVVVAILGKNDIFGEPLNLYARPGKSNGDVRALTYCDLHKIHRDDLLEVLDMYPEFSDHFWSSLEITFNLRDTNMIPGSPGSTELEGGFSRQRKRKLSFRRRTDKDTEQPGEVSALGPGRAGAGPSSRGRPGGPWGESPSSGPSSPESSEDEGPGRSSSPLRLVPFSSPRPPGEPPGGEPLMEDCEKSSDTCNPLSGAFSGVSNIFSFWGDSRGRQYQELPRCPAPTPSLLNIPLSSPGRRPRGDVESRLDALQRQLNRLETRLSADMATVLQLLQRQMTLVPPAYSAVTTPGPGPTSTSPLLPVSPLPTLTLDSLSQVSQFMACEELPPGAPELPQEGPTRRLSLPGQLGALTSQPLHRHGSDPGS
serotonin receptor 5-HT2B, sequence (P41595 whole entry): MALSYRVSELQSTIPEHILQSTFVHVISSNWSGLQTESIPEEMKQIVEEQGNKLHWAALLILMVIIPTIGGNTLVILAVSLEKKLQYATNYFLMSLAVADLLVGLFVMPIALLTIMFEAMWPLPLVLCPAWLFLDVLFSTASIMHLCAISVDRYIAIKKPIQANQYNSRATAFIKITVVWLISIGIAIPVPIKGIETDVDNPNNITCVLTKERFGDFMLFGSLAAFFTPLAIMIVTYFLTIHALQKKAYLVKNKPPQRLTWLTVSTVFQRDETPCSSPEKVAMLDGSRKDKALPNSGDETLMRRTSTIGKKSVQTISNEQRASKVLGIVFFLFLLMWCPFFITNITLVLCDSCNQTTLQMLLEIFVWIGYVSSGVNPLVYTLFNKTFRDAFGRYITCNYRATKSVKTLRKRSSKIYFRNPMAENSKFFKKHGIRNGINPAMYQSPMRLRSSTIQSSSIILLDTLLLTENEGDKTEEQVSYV

Row | inhibition at 12.5 µM [1] | IC50 [2] | inhibition at 12.5 µM [3] | activity at 5-HT2B [4] | activity at iGluR5 [5] | activity at M2 [7] | activity at 5-HT2A [8] | Structure (SMILES) | immobility time [6] | activity at the hERG channel [9]
1 | 22.7% | 52 ± 17.9 nM | 32.2% | – | – | – | – | Cl.Cn1cnc(S[C@H]2[C@H]3[C@H](C(=O)O)[C@H]3[C@](N)(C(=O)O)[C@@H]2OCc2ccc(Cl)c(Cl)c2)n1 [Example 7, (1R,2R,3S,4S,5R,6R)-2-Amino-3-[(3,4-dichlorophenyl)methoxy]-4-[(1-methyl-1,2,4-triazol-3-yl)sulfanyl]bicyclo[3.1.0]hexane-2,6-dicarboxylic acid hydrochloride.] | – | –
2 | 13.8% | 22 ± 3 nM | 46.9% | – | – | – | – | Cl.N[C@]1(C(=O)O)[C@@H]2[C@@H](C(=O)O)[C@@H]2[C@H](NC(=O)CO)[C@H]1OCc1ccc(Cl)c(Cl)c1 [Example 9, (1S,2R,3R,4S,5R,6S)-2-Amino-3-[(3,4-dichlorobenzyl)oxy]-4-[(hydroxyacetyl)amino]bicyclo[3.1.0]hexane-2,6-dicarboxylic acid hydrochloride] | – | –
3 | -12.9% | 13.1 ± 1.9 nM | 69% | – | – | – | – | N[C@]1(C(=O)O)[C@@H]2[C@@H](C(=O)O)[C@@H]2[C@H](Sc2nc[nH]n2)[C@H]1OCc1ccc(Cl)c(Cl)c1 [Example 2, (1R,2R,3S,4S,5R,6R)-2-Amino-3-[(3,4-dichlorobenzyl)oxy]-4-(1H-1,2,4-triazol-3-ylsulfanyl)bicyclo[3.1.0]hexane-2,6-dicarboxylic acid] | – | –
4 | 4.8% | 43.3 ± 5.8 nM | 28.5% | no appreciable activity | no appreciable activity | no appreciable activity | no appreciable activity | N[C@]1(C(=O)O)[C@@H]2[C@@H](C(=O)O)[C@@H]2[C@H](O)[C@H]1OCc1ccc(Cl)c(Cl)c1 [Example 1, (1S,2R,3S,4S,5R,6R)-2-Amino-3-[(3,4-dichlorobenzyl)oxy]-4-hydroxybicyclo[3.1.0]hexane-2,6-dicarboxylic acid] | significantly decrease immobility time | no appreciable activity

Row | Structure (SMILES) | inhibition at 12.5 µM [1] | IC50 [2] | inhibition at 12.5 µM [3] | activity at 5-HT2B [4] | activity at iGluR5 [5] | activity at M2 [7] | activity at 5-HT2A [8] | immobility time [6] | activity at the hERG channel [9]
5 | CC(=O)N[C@H]1[C@H]2[C@H](C(=O)O)[C@H]2[C@](N)(C(=O)O)[C@@H]1OCc1ccc(Cl)c(Cl)c1 [Example 4, (1S,2R,3R,4S,5R,6S)-4-(Acetylamino)-2-amino-3-[(3,4-dichlorobenzyl)oxy]bicyclo[3.1.0]hexane-2,6-dicarboxylic acid] | 22.6% | 25.5 ± 2.8 nM | 13.3% | – | – | – | – | – | –

— US9056844B2, “4-substituted-3-benzyloxy-bicyclo[3.1.0]hexane compounds as mGluR 2/3 antagonists” (Eli Lilly and Company, priority 2010, dated 2015)
